Reference: US12655106B2 (Eikonizo Therapeutics, Inc., priority 2021, dated 2026)

Experiments:
[1] = target: T1, Full length Human HDAC8 (Homo sapiens, UniProt Q9BY41); test: Caliper endpoint assay for HDAC enzymatic activity (HDAC8); format: biochemical; conditions: in vitro enzymatic, 30 min pre-incubation, 1 μM substrate peptide
T1 construct: Full length Human HDAC8; HIS (N); host or cells: baculovirus expression system
T1 sequence (Q9BY41 1-377): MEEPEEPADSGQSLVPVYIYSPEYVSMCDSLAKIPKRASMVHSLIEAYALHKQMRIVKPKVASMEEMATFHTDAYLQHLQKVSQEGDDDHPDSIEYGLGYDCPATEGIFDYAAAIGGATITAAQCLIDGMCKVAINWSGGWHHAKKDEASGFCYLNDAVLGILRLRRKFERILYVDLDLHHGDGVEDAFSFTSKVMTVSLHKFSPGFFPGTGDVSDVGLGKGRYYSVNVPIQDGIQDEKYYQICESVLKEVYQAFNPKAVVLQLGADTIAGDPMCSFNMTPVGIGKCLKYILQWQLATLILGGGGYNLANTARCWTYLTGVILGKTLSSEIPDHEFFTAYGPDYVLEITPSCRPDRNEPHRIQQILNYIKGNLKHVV

[2] = target: T2, Full length Human HDAC6 (Homo sapiens, UniProt Q9UBN7); test: Caliper endpoint assay for HDAC enzymatic activity (HDAC6); format: biochemical; conditions: for IC50: in vitro enzymatic, Caliper endpoint assay, 30 min pre-incubation, 1 μM substrate peptide; for Selectivity (6 v 8): ratio of HDAC8 IC50/HDAC6 IC50
T2 construct: Full length Human HDAC6; FLAG (C); host or cells: baculovirus expression system
T2 sequence (Q9UBN7 1-1215): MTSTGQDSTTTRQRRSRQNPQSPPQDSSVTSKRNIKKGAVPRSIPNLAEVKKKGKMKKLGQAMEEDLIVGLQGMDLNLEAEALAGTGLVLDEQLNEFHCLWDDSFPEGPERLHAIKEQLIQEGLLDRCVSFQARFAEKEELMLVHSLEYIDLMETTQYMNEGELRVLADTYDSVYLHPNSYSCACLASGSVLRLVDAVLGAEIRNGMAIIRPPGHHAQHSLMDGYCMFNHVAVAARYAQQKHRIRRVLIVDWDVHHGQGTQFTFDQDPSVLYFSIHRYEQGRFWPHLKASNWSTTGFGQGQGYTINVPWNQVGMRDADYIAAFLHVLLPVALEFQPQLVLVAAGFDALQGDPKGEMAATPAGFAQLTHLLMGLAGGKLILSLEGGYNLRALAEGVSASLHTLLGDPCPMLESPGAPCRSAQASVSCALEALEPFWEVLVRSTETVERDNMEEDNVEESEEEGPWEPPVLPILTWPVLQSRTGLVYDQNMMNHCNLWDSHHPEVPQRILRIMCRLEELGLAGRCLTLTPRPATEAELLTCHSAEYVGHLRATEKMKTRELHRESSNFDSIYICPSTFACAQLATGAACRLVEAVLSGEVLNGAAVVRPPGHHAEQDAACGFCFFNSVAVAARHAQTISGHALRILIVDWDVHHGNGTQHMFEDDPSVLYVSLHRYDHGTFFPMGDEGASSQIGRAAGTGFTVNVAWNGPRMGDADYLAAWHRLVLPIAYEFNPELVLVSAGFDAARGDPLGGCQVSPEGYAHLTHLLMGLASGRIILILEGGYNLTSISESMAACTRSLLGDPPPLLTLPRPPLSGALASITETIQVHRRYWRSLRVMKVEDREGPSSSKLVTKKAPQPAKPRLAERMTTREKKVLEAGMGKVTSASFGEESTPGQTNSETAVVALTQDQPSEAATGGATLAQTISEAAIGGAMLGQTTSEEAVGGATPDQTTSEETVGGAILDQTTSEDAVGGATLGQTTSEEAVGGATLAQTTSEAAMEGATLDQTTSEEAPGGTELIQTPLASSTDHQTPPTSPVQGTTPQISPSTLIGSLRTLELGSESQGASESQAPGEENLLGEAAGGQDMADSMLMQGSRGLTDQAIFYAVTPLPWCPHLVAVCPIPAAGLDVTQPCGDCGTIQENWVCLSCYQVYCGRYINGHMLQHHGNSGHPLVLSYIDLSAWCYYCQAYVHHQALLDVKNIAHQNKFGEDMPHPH

Row | IC50 [1] [nM] | IC50 [2] [nM] | Selectivity (6 v 8) [2] | SMILES
1 | 10000 to 100000 | 1 to 100 | IV (IV: >100-1000) | O=C(NO)c1cc(F)c2c(c1)CCN([C@@H]1CCN(Cc3ccccc3)C3(CCC3)C1)C2 (single isomer, unassigned) [Compound 444]
2 | 1000 to 10000 | 1 to 100 | III (III: >10-100) | CC[C@@H]1Cc2c(F)cc(C(=O)NO)cc2CN1CC1CCCCC1 (single isomer, unassigned) [Compound 517]
3 | 1000 to 10000 | 1 to 100 | IV (IV: >100-1000) | O=C(NO)c1cc(F)c2c(c1)CCN(C1CC3(C1)CN(C1CC1)C3)C2 [Compound 291, 2-(2-cyclopropyl-2-azaspiro[3.3]heptan-6-yl)-8-fluoro-N-hydroxy-1,2,3,4-tetrahydroisoquinoline-6-carboxamide]
4 | 10000 to 100000 | 100 to 1000 | III (III: >10-100) | CC[C@@H]1Cc2c(F)cc(C(=O)NO)cc2CN1C1CCCC1 (single isomer, unassigned) [Compound 580]
5 | 1000 to 10000 | 100 to 1000 | III (III: >10-100) | CC[C@H](c1ccc(C(=O)NO)cc1F)N1CCC2(CCCCC2)C1 (single isomer, unassigned) [Compound 238]
6 | 10000 to 100000 | 1 to 100 | V (V: >1000) | O=C(NO)c1cc(F)c2c(c1)CCN(CC1CCC3(CC1)CNC3)C2 [Compound 464, 2-(2-azaspiro[3.5]nonan-7-ylmethyl)-8-fluoro-3,4-dihydro-1H-isoquinoline-6-carbohydroxamic acid]
7 | 1000 to 10000 | 100 to 1000 | III (III: >10-100) | CC[C@@H]1Cc2c(F)cc(C(=O)NO)cc2CN1CC12CC3CC(CC(C3)C1)C2 (single isomer, unassigned) [Compound 507]
8 | 10000 to 100000 | 1 to 100 | IV (IV: >100-1000) | O=C(NO)c1cc(F)c2c(c1)CCN(C1CC[C@]13CCCO3)C2 (single isomer, unassigned) [Compound 320]
9 | 1000 to 10000 | 1 to 100 | IV (IV: >100-1000) | O=C(NO)c1cc(F)c2c(c1)CCN(C1CC[C@@]13CCCO3)C2 (single isomer, unassigned) [Compound 319]
10 | 1000 to 10000 | 1 to 100 | III (III: >10-100) | O=C(NO)c1cc(F)c2c(c1)CCN(C1CCC13CN(C1CC1)C3)C2 (centres unmarked) [Compound 303, 2-(2-cyclopropyl-2-azaspiro[3.3]heptan-7-yl)-8-fluoro-3,4-dihydro-1H-isoquinoline-6-carbohydroxamic acid]
11 | 10000 to 100000 | 1 to 100 | IV (IV: >100-1000) | O=C(NO)c1cc(F)c2c(c1)CCN(CC13CC(C1)N(C1CC1)C3)C2 [Compound 491, 2-[(2-cyclopropyl-2-azabicyclo[2.1.1]hexan-4-yl)methyl]-8-fluoro-3,4-dihydro-1H-isoquinoline-6-carbohydroxamic acid]
12 | 1000 to 10000 | 1 to 100 | III (III: >10-100) | CC[C@H]1Cc2c(F)cc(C(=O)NO)cc2CN1CC1CCC2(CCC2)CC1 (single isomer, unassigned) [Compound 528]
13 | 10000 to 100000 | 1 to 100 | IV (IV: >100-1000) | O=C(NO)c1cc(F)c2c(c1)CCN(C1CCC3(CNC3)C1)C2 (centres unmarked) [Compound 388, 8-fluoro-N-hydroxy-2-(2-azaspiro[3.4]octan-6-yl)-1,2,3,4-tetrahydroisoquinoline-6-carboxamide]
14 | 10000 to 100000 | 100 to 1000 | IV (IV: >100-1000) | CC[C@H]1Cc2c(F)cc(C(=O)NO)cc2CN1C1CC2(CCN(C)CC2)C1 (single isomer, unassigned) [Compound 595]
15 | 1000 to 10000 | 1 to 100 | IV (IV: >100-1000) | CN1CCC2(CC1)CC(CN1CCc3cc(C(=O)NO)cc(F)c3C1)C2 [Compound 469, 8-fluoro-2-[(7-methyl-7-azaspiro[3.5]nonan-2-yl)methyl]-3,4-dihydro-1H-isoquinoline-6-carbohydroxamic acid]
16 | 1000 to 10000 | 1 to 100 | III (III: >10-100) | CC[C@@H]1Cc2c(F)cc(C(=O)NO)cc2CN1C[C@@H]1CCCCO1 (single isomer, unassigned) [Compound 228]
17 | 10000 to 100000 | 1 to 100 | IV (IV: >100-1000) | CC(=O)N1CCC[C@]2(C1)C[C@H](N1CCc3cc(C(=O)NO)cc(F)c3C1)C2 (single isomer, unassigned) [Compound 348, 2-(6-acetyl-6-azaspiro[3.5]nonan-2-yl)-8-fluoro-3,4-dihydro-1H-isoquinoline-6-carbohydroxamic acid]

Second part, the molecule before the results:

Row | SMILES | IC50 [1] [nM] | IC50 [2] [nM] | Selectivity (6 v 8) [2]
18 | CN1CCC2(CC1)CC(N1CCc3cc(C(=O)NO)cc(F)c3C1)C2 [Compound 198, 8-fluoro-N-hydroxy-2-(7-methyl-7-azaspiro[3.5]nonan-2-yl)-1,2,3,4-tetrahydroisoquinoline-6-carboxamide] | 10000 to 100000 | 1 to 100 | IV (IV: >100-1000)
19 | O=C(NO)c1cc(F)c2c(c1)CCN1CCCC[C@@H]21 (single isomer, unassigned) [Compound 139] | 1000 to 10000 | 1 to 100 | –
20 | O=C(NO)c1cc(F)c2c(c1)CCN1CCCC[C@H]21 (single isomer, unassigned) [Compound 140] | 10000 to 100000 | 1000 to 10000 | –
21 | O=C(NO)c1cc(F)c2c(c1)CCN(C1CC3(CCOC3)C1)C2 (single isomer, unassigned) [Compound 189, 8-fluoro-N-hydroxy-2-(6-oxaspiro[3.4]octan-2-yl)-1,2,3,4-tetrahydroisoquinoline-6-carboxamide] | 10000 to 100000 | 1 to 100 | IV (IV: >100-1000)
22 | O=C(NO)c1cc(F)c2c(c1)C[C@@H]1CCC3(CCCCC3)CN1C2 (single isomer, unassigned) [Compound 137] | 10000 to 100000 | 100 to 1000 | –
23 | O=C(NO)c1ccc(CN2C3CCCC2CC3)c(F)c1 [Compound 61] | – | – | II (II: >1-10)
24 | O=C(NO)c1ccc2c(c1)CN1CCC[C@@H]21 (single isomer, unassigned) [Compound 165] | – | – | III (III: >10-100)
25 | O=C(NO)c1cc(F)c(CN2C3CCC2COC3)cc1F [Compound 50] | – | – | III (III: >10-100)
26 | O=C(NO)c1ccc(CN2CCC3(CCCCC3)C2)c(F)c1 [Compound 75, 4-((2-Azaspiro[4.5]decan-2-yl)methyl)-3-fluoro-N-hydroxybenzamide] | – | – | III (III: >10-100)
27 | O=C1CC2CCC(C1)N2Cc1ccc(C(=O)NO)cc1F [Compound 63] | – | – | III (III: >10-100)
28 | O=C(NO)c1ccc(CN2C3CCC2COC3)c(F)c1 [Compound 59] | – | – | III (III: >10-100)
29 | O=C1CC2CCCC(C1)N2Cc1ccc(C(=O)NO)cc1F [Compound 62] | – | – | III (III: >10-100)
30 | O=C(NO)c1ccc(CN2C3CCCC2CCC3)c(F)c1 [Compound 60] | – | – | II (II: >1-10)
31 | O=C(NO)c1ccc(CN2C3CCCC2COC3)c(F)c1 [Compound 52] | – | – | III (III: >10-100)
32 | CC1(C)C[C@H]2Cc3cc(C(=O)NO)cc(F)c3CN2C1 (single isomer, unassigned) [Compound 125] | – | – | III (III: >10-100)
33 | CN1CC2CCC(C1)N2Cc1ccc(C(=O)NO)cc1F [Compound 56] | – | – | III (III: >10-100)
